What all share (experiment): NCI anticancer screen, dose series, 48 h
The test system of test [1] is A549 NSCLC.
Test [2] relates to ACHN renal.
Test [3] concerns DU-145 prostate.
Test [4] relates to HCT-116 colon.
Test [5] concerns HOP-92 NSCLC.
Test [6] has as its system KM12 colon.
The subject of test [7] is OVCAR-4 ovarian.
The subject of test [8] is SK-OV-3 ovarian.
Test [9] deals with SN12C renal.
The test system of test [10] is SNB-75 CNS.

Where “and” joins values, the source holds several entries; their conditions need not be identical. Identical values can stand only once.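 Results reflect a 48-hour exposure of cells in 96-well plates to compound at five concentrations. At the GI50, growth is halved. TGI: total growth inhibition.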 Where only a bound is given, the exact number is not on record here.

As for `CN(CCc1ccccn1)c1ccc2c(c1)C(=O)c1ccccc1-2`, the TGI in test [1], in test [2], in test [3], in test [4], in test [5] and in test [6] was above 100 µM each time. Further, the TGI in [7], in [8], in test [9] and in test [10] was above 100 µM in each case.
On to `CCOc1nc2c(N3CCCC3)nc(N3CCNCC3)nc2nc1NCc1ccccc1`, for which the TGI in [1] was 4.26 µM; in test [2], 4.55 µM; in test [3], 6.84 µM; in test [4], 2.14 µM; in test [5], 2.5 µM; in test [6], 3.08 µM. The TGI was 6.05 µM in test [7], 3.26 µM in test [8], 2.96 µM in [9] and 2.46 µM in [10].
With `COC(=O)c1c(O)ccc2c1c1cc3ccccc3c(O)c1n2CCc1ccc(OC)c(OC)c1`, the TGI in [1], in [2], in test [3], in [4], in [5] and in [6] was above 100 µM throughout. For the same compound, the TGI in [7], in test [8] and in test [9] was above 100 µM each time.
As to `O=P(NCCCO)(OCc1ccccc1)N(CCCl)CCCl` (configuration not stated), the TGI in test [1], in [4], in test [5], in [6], in test [7] and in [8] was above 100 µM in each case. The TGI in test [9] and in test [10] was above 100 µM each time.
For `O=[N+]([O-])c1ccc(N=Nc2c(O)[nH]c3ccccc23)c([N+](=O)[O-])c1`, the TGI was 28 µM in [1]; 19.2 µM in test [2]; 30.1 µM in test [3]; 49.7 µM in [4]; 12.5 µM in test [5]; above 100 µM in test [6]. The TGI in [7] came out at 30.7 µM; in test [8] it was 32.4 µM; in [9], 38.8 µM; in test [10], 72.3 µM.
In the case of `CC(C)CC(N)C(=O)NC(C(=O)NC(CCCNC(=N)N)C(=O)NC(CS)C(=O)NC1CSCC(C(=O)NC(Cc2ccccc2)C(=O)NC(C(=O)NC(CCCNC(=N)N)C(=O)O)C(C)C)NC(=O)C2CCCN2C(=O)C(CCCCN)NC(=O)C2CCCN2C(=O)C2CCCN2C(=O)C(Cc2ccc(O)cc2)NC(=O)C(CO)NC(=O)C(CCCCN)NC(=O)C(C(C)O)NC(=O)C(Cc2c[nH]c3ccccc23)NC1=O)C(C)C` (configuration not stated), the TGI in [1], in [2], in test [3], in test [4], in [5] and in [6] was above 25 µM each time. The TGI in test [7], in test [8] and in [9] was above 25 µM in each case.
As for `Cc1c(-c2ccccc2)[nH]c2cn[nH]c(=O)c12`, the TGI in [1], in test [2], in test [3], in test [4], in [5] and in [6] was above 100 µM throughout. In [8], this compound had a TGI above 100 µM.
Consider `O=C(Nc1ccccc1)Oc1ccc(C(=S)Nc2ccc(Br)cc2)cc1`, for which the TGI in test [2] was 97.9 µM; in [3], 81.8 µM; in test [4], 37.2 µM; in test [6] it was 32.4 µM; in test [7] it was 86.3 µM; in test [8] it was above 100 µM.
Take `COc1ccc(N2C(=O)C(=O)C3(CCCCC3)C2=O)c2ccccc12`: the TGI in [1], in test [2], in [3], in test [4], in test [6] and in test [7] was above 10 µM each time. The TGI in [8], in [9] and in test [10] was above 10 µM each time.
Take `CN1CCC(C(O)(c2ccccc2)c2ccc(Br)cc2)CC1` (configuration not stated): the TGI in test [1] is above 100 µM; in test [2], above 100 µM; in test [3], above 100 µM; in test [4] it was 51.1 µM; in test [5] it was 70.4 µM; in test [6] it was 43.2 µM. The TGI in test [7] was above 100 µM; in [8], above 100 µM; in test [9] it was 44.3 µM; in [10] it was 91.5 µM.
`COc1ccc2nc3cc(Cl)ccc3c(NCCCN3CCN(CCCNc4ccc5nnn6c7ccccc7c(=O)c4c56)CC3)c2c1`: the TGI in test [1] was above 25 µM; in test [3], above 25 µM; in [4] it was above 20.2 µM; in test [5] it was above 25 µM; in test [6] it was above 25 µM; in test [7], above 25 µM. The TGI in test [8], in [9] and in test [10] was above 25 µM in each case.
As to `C#C[C@]1(O)CC[C@H]2[C@@H]3CCc4cc(O)ccc4[C@H]3CC[C@@]21C`, the TGI was above 100 µM in [1]; above 100 µM in test [2]; above 100 µM in test [4]; 95 µM in test [5]; above 100 µM in test [6]; 79.7 µM in test [8]. Also, the figures for the TGI in test [9] and in test [10] were above 100 µM and 42.8 µM, respectively.
As to `COc1ccccc1-c1c(C#N)c(N)[nH]c(=S)c1C#N`, the TGI in test [1], in test [2], in test [3], in [4], in test [5] and in test [6] was above 100 µM throughout. Also, the TGI was above 100 µM in test [7] and 91.8 µM in test [9].
As to `CC(=O)c1ccc(Nc2c3ccccc3nc3occc23)cc1`, the TGI in test [1] was above 35.1 µM; in test [2], above 72.5 µM; in test [3] it was 5.39 µM; in test [4], above 34.7 µM; in [5] it was 83.5 µM; in test [6] it was 1.59 µM. Further, the TGI worked out at 13.2 µM in test [8] and 56.4 µM in [9].
As for `COc1cc(C2S/C(=C/c3ccccc3)C(=O)N2c2cccc(NC(C)=O)c2)cc(OC)c1OC` (configuration not stated), the TGI in test [1] is above 100 µM; in [2], above 100 µM; in test [4], 37.2 µM; in test [5], 85.7 µM; in test [6], 82 µM; in test [7] it was above 100 µM. Besides, the TGI was above 100 µM in [8], above 100 µM in test [9] and 28 µM in [10].
In the case of `COc1ccc(C2C3CCc4ccccc4C3=NN2S(=O)(=O)c2cccc(C(=O)O)c2OC)cc1` (configuration not stated), the TGI is above 100 µM in test [1]; 63.9 µM in test [2]; above 100 µM in [3]; above 100 µM in test [4]; above 100 µM in test [5]; above 100 µM in [6]. Also, the TGI was above 100 µM in test [7], 17.7 µM in test [8] and above 100 µM in test [9].
Regarding `O=C(O)c1cc2ccccc2c(N=Nc2ccc(S(=O)(=O)Nc3ncccn3)cc2)c1O`, the TGI in [1], in test [2], in test [4], in test [5], in test [6] and in [7] was above 100 µM in each case. Also, the TGI in test [8] and in test [10] was above 100 µM throughout.
On to `Nc1nc(SCC(=O)c2ccc(Br)cc2)c2[nH]cnc2n1`, for which the TGI in test [1] is above 100 µM; in test [2], above 100 µM; in test [3], above 100 µM; in test [4], above 100 µM; in test [5], 62.1 µM; in test [6], above 100 µM. Besides, the TGI in test [7] was above 100 µM; in test [8], above 100 µM; in [9], above 100 µM; in [10], 73 µM.
As for `COc1ccc(CCn2cncn2)cc1`, the TGI in test [1], in test [2], in [4], in test [5], in [6] and in test [7] was above 100 µM throughout. Also, the TGI in test [8], in test [9] and in test [10] was above 100 µM throughout.
In the case of `Cc1ccc(-c2cn3c(nc4ccccc43)c(/C=C/c3ccco3)n2)cc1`, the TGI in [1], in test [2], in [3], in test [4], in test [5] and in [6] was above 100 µM throughout. The TGI in [7], in [8], in [9] and in test [10] was above 100 µM in each case.
For the compound `O=C(Cc1nc2ccccc2[nH]c1=O)c1c[nH]c2ccccc12`, the TGI was above 100 µM in [1]; 22.3 µM in test [2]; above 100 µM in test [3]; 56.2 µM in test [4]; above 100 µM in test [5]; 58 µM in [6]. In addition, the TGI in [7] is 72.2 µM; in [8] it was 47.6 µM; in [9] it was 54.3 µM; in test [10], above 100 µM.
For `COC(=O)/C=C\C(C#N)(C#N)N=Cc1ccc(OC)cc1`, the TGI is 38.3 µM in test [1]; 8.64 µM in [2]; 17 µM in [3]; 3.77 µM in test [4]; 4.61 µM in test [5]; 32.6 µM in test [6]. Further, the TGI is 12.8 µM in [7], 31 µM in [8], 30.9 µM in [9] and 34.2 µM in test [10].
Take `N#C/C(=C(/O)CCl)c1nc2ccccc2o1`: the TGI was 34.8 µM in test [1]; above 100 µM in test [3]; 29.2 µM in test [4]; 14.5 µM in [5]; 53.3 µM in [6]; 3.97 µM in test [7]. The TGI in test [8] was determined as 24.7 µM; in test [9] it was 9.33 µM; in test [10], 23.4 µM.
Take `CN(C)c1ccc(-c2ccc(-c3ccc(C(=N)N)cn3)o2)cc1`: the GI50 in test [1] was 1.89 µM; in test [2], 1.75 µM; in test [3] it was 1.72 µM; in test [4] it was 1.47 µM; in test [5], 1.27 µM; in test [6], 1.43 µM. Further, the GI50 in test [8] was 1.88 µM; in test [10], 1.59 µM. Besides, the TGI amounted to 3.75 µM in [1]; 3.13 µM in test [2]; 3.18 µM in [3]; 2.92 µM in [4]; 2.87 µM in test [5]; 3.01 µM in test [6]. Besides, the TGI was found to be 3.28 µM in test [8] and 3 µM in test [10].
With `C/C(C=O)=C/[C@@]1(C)O[C@@H](C)[C@@](C)(O)[C@@H]1O`, the TGI was above 100 µM in test [1]; 44.4 µM in [2]; above 100 µM in test [3]; above 100 µM in test [4]; above 100 µM in test [5]; above 100 µM in test [6]. The TGI in test [7], in [8] and in test [9] was above 100 µM throughout.
Take `C=C1C(O)C2(O)OCC34C(CC5C(C)=CC(=O)C(O)C5(C)C23)OC(=O)C(OC(=O)C/C=C/CCCCCCCC)C14` (configuration not stated): the TGI in test [1] stood at 0.0918 µM; in test [4] it was 0.116 µM; in test [5] it was 0.0229 µM; in [6], 0.0751 µM; in [8] it was 0.606 µM; in test [9], 0.193 µM. In test [10], this compound returned a TGI of 0.0667 µM.
On to `O=c1c2cc(O)ccc2n2nnc3ccc(NCCNCCO)c1c32`, for which the GI50 in test [1] was 22.9 µM and 5.95 µM; in [2] it was 7.68 µM and 3.58 µM; in test [9], 5.78 µM and 2.85 µM; in test [10], 2.68 µM and 5.5 µM. The TGI was > 100 µM and 28.9 µM in test [1]; > 64.8 µM and 22.1 µM in [2]; > 100 µM and 28.6 µM in test [4]; 16.5 µM and 12.9 µM in [5]; > 85.3 µM and 25.2 µM in test [6]; 33.2 µM and 15.9 µM in test [7]. Moreover, the TGI is > 100 µM and 37 µM in test [8]; 51.9 µM and 18.4 µM in [9]; 17 µM and 18.3 µM in [10].
As for `CCCCCCCCCCCCCCCc1nc(=S)[nH][nH]1`, the TGI in [2], in test [4], in [6], in [7], in test [8] and in test [9] was above 100 µM each time. Also, the TGI in test [10] is above 100 µM.

These data come from PubChem BioAssay (NCI).
